# Where “and” joins values, the source holds several entries; their conditions need not be identical. Equal entries are not always repeated. Calls of active or inactive are those of the source.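 The calls were made as follows: active = compounds whose mean IC50 is under 100 micromolar in the phosphatase inhibition dose series; inactive = the rest.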
# Biological target: Intestinal-type alkaline phosphatase (Homo sapiens) (UniProt P09923)
# Assay: potency of intestinal alkaline phosphatase inhibition – biochemical, luminescence, SAR follow-up (AID 493137)
# Conditions: purified human IAP, CDP-Star luminescence, 30 min
# Chain of Intestinal-type alkaline phosphatase (Homo sapiens) (P09923 whole entry, looked up): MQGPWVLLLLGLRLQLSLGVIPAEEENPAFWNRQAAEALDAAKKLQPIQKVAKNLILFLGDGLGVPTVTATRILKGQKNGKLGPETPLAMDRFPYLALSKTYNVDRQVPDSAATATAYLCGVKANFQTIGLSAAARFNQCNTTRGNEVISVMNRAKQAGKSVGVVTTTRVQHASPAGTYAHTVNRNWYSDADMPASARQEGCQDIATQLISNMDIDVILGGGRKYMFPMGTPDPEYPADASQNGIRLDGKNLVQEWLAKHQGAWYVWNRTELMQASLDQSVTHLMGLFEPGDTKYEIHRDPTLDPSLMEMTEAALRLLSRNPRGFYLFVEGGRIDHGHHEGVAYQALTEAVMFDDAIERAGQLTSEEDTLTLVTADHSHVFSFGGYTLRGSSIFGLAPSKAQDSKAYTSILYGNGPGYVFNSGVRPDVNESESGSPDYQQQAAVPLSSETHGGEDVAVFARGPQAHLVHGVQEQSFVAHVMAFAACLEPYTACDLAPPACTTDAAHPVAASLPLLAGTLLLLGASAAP
row,IC50,Compound
1,> 100 µM (inactive),COC(=O)/C=C1\S/C(=N/N=C/c2ccc(Cl)cc2)NC1=O
2,> 100 µM (inactive),O=C(O)CC1S/C(=N/N=C/c2ccco2)NC1=O (stereo unspecified)
3,> 100 µM (inactive),COC(=O)/C=C1\SC(N=Nc2c(O)[nH]c3ccccc23)=NC1=O
4,> 100 µM (inactive),COc1cc(C(=O)NNC(=S)Nc2ccc(S(N)(=O)=O)cc2)cc(OC)c1OC
5,45.1 µM,NS(=O)(=O)c1ccc(Nc2nc(-c3ccc(O)c(O)c3)cs2)cc1
6,> 100 µM (inactive),COC(=O)/C=C1/S/C(=N/N=Cc2ccc(N(C)C)cc2)NC1=O
7,> 100 µM (inactive),COC(=O)/C=C1/S/C(=N/NC(=O)c2ccccc2OC)NC1=O
8,> 100 µM (inactive) and 96.6 µM,Cc1c(Cl)cccc1Nc1nc(-c2ccc(O)c(O)c2)cs1
9,> 100 µM (inactive),COC(=O)/C=C1/S/C(=N/NC(=O)c2ccc(OC)cc2)NC1=O
10,> 100 µM (inactive),NS(=O)(=O)c1ccc(Nc2nc(-c3ccc(O)cc3O)cs2)cc1
11,> 100 µM (inactive),COc1ccc(NC(=S)NCCC(c2ccccc2)c2ccccc2)cc1
12,> 100 µM (inactive),Cc1ccc(Nc2nc(-c3ccc(O)c(O)c3)cs2)cc1F
13,> 100 µM (inactive),COc1ccc(-c2csc(Nc3cccc4ccccc34)n2)cc1
14,> 100 µM (inactive),Cc1cccc(Nc2nc(-c3ccc(O)c(C(N)=O)c3)cs2)c1
15,> 100 µM (inactive),COC(=O)C/C=N/N=C1\NC(=O)/C(=C/C(=O)O)S1
16,> 100 µM (inactive),COc1ccc(C=Nn2c(=S)n(C)c3ccccc32)cc1OC
17,> 100 µM (inactive),Cc1ccc2sc(NNC(=O)c3ccc4c(c3)OCCO4)nc2c1C
18,> 100 µM (inactive),COc1ccc(C=NNC(=S)Nc2ccccc2[N+](=O)[O-])cc1O
19,> 100 µM (inactive),Cc1ccc(C)c(Nc2nc(-c3ccc(O)cc3O)cs2)c1
20,> 100 µM (inactive),COc1cc(/C=N/N=C2/SCC(=O)N2c2ccc(O)cc2)ccc1O
21,> 100 µM (inactive),CCN(CC)S(=O)(=O)c1ccc(-c2csc(=Nc3cccc4ccccc34)n2C)cc1
22,> 100 µM (inactive),Oc1ccc(-c2csc(Nc3ccccc3)n2)c(O)c1
23,> 100 µM (inactive),COc1ccc(/C=N/N=C2\NC(=O)C(CC(=O)O)S2)c(OC)c1 (stereo unspecified)
24,> 100 µM (inactive),N#CCCn1cc(/C=N/N=C2/NC(=O)C(CC(=O)O)S2)c(-c2ccc(F)cc2)n1 (stereo unspecified)
25,> 100 µM (inactive),Cc1cccc(Nc2nc(-c3ccc(O)c(O)c3)cs2)c1
26,> 100 µM (inactive),O=[N+]([O-])c1ccccc1NC(=S)N/N=C/c1ccc(O)c(O)c1O

row,IC50,Compound
1,> 100 µM (inactive),COc1ccc(/C=N/N=C2/NC(=O)C(CC(=O)O)S2)cc1OC (stereo unspecified)
2,> 100 µM (inactive),CCOc1ccc(Nc2nc(-c3ccc(O)c(O)c3)cs2)cc1
3,> 100 µM (inactive),Cc1cccc(C)c1NC(=S)N/N=C/c1ccc(O)c(O)c1O
4,> 100 µM (inactive),Cc1ccc(Nc2nc(-c3ccc(O)c(O)c3)cs2)cc1
5,> 100 µM (inactive),COc1cc(/C=N/N=C2\NC(=O)C(CC(=O)O)S2)cc(OC)c1OC (stereo unspecified)
6,> 100 µM (inactive),Cn1c(=S)n(N=Cc2ccc3c(c2)OCO3)c2ccccc21
7,> 100 µM (inactive),Cc1ccc2nc(NNC(=O)c3ccc4c(c3)OCCO4)sc2c1
8,> 100 µM (inactive),Cc1ccc(Nc2nc(-c3ccc(O)c(C(N)=O)c3)cs2)cc1
9,> 100 µM (inactive),COc1cc(C=NNC(=S)Nc2cccc(C(=O)O)c2)ccc1O
10,> 100 µM (inactive),O=[N+]([O-])c1ccc(NC(=S)NCCC(c2ccccc2)c2ccccc2)cc1
11,> 100 µM (inactive),Cc1cccc2sc(NNC(=O)c3ccc4c(c3)OCCO4)nc12
12,> 100 µM (inactive),COc1ccc(C=NN=C2SC(CC(=O)O)C(=O)N2c2ccc(O)cc2)cc1 (stereo unspecified)
13,> 100 µM (inactive),COc1cccc(Nc2nc(-c3ccc(O)cc3)cs2)c1
14,> 100 µM (inactive),COc1ccc(C(=O)NNC(=S)NC2CCCCC2)cc1OC
15,33 µM and 46.8 µM,Oc1ccc(-c2csc(Nc3cccc4ccccc34)n2)cc1O
16,> 100 µM (inactive),O=S(=O)(c1ccc(NC(=S)N/N=C/c2ccc(O)c(O)c2O)cc1)N1CCOCC1
17,> 100 µM (inactive),Cc1cc(C)cc(Nc2nc(-c3ccc(O)cc3O)cs2)c1
18,> 100 µM (inactive),COC(=O)/C=C1/S/C(=N/NC(=O)c2ccccc2C)NC1=O
19,> 100 µM (inactive),COc1cc([N+](=O)[O-])ccc1NC(=S)NNC(=O)c1ccc2c(c1)OCO2
20,> 100 µM (inactive),Cc1cccc(NC(=S)NN=Cc2ccc3c(c2)OCO3)c1
21,> 100 µM (inactive),O=S(=O)(c1ccc(NC(=S)N/N=C/c2ccc(O)c(O)c2)cc1)N1CCOCC1
22,> 100 µM (inactive),COC(=O)/C=C1\S/C(=N/N=C/CC(=O)OC)NC1=O
23,> 100 µM (inactive),Cc1ccc(Nc2nc(-c3ccc(O)cc3O)cs2)cc1C
24,> 100 µM (inactive),Cc1ccc(-c2ccc(/C=N/N=C3\NC(=O)C(CC(=O)O)S3)o2)c([N+](=O)[O-])c1 (stereo unspecified)
25,24.4 µM,Cc1ccc(Cl)cc1Nc1nc(-c2ccc(O)c(O)c2)cs1
26,> 100 µM (inactive),COc1ccc(Cl)cc1Nc1nc(-c2ccc(O)c(O)c2)cs1

row,IC50,Compound
1,> 100 µM (inactive),O=S(=O)(Nc1ncccn1)c1ccc(NC(=S)NCCC(c2ccccc2)c2ccccc2)cc1
2,> 100 µM (inactive),Cc1cc(=O)oc2cc(NC(=S)NCCC(c3ccccc3)c3ccccc3)ccc12
3,> 100 µM (inactive),CN(C)S(=O)(=O)c1cccc(NC(=S)NN=Cc2ccc(O)c(O)c2O)c1
4,> 100 µM (inactive),CCOc1cc(/C=N/N=C2\NC(=O)C(CC(=O)O)S2)ccc1O (stereo unspecified)
5,> 100 µM (inactive),CC(C)(C)c1ccc(/C=N/N=C2\NC(=O)C(CC(=O)O)S2)cc1 (stereo unspecified)
6,> 100 µM (inactive),CCOc1cc(C=NNC(=S)NC2CCCCC2)ccc1O
7,> 100 µM (inactive),COC(=O)/C=C1/S/C(=N/NC(=O)c2ccc(Cl)cc2Cl)NC1=O
8,> 100 µM (inactive),COc1cc(C=NNC(=S)Nc2cccc(S(=O)(=O)N(C)C)c2)cc(OC)c1O
9,> 100 µM (inactive),FC(F)(F)c1cccc(NC(=S)NCCC(c2ccccc2)c2ccccc2)c1
10,> 100 µM (inactive),Cc1cccc(NC(=S)NNC(=O)c2ccc3c(c2)OCO3)c1
11,> 100 µM (inactive),Cc1ccc(Nc2nc(-c3ccc(O)cc3O)cs2)cc1F
12,> 100 µM (inactive),S=C(NCCC(c1ccccc1)c1ccccc1)Nc1ccc(Cl)cc1Cl
13,76 µM,O=[N+]([O-])c1ccccc1NC(=S)NN=Cc1ccc(O)c(O)c1
14,> 100 µM (inactive),CCOc1cc(C=N/N=C2/NC(=O)C(CC(=O)O)S2)ccc1OCc1ccccc1Cl (stereo unspecified)
15,11.6 µM,Oc1ccc(Nc2nc(-c3ccc(O)c(O)c3)cs2)cc1
16,> 100 µM (inactive),COc1cc([N+](=O)[O-])ccc1NC(=S)NCCC(c1ccccc1)c1ccccc1
17,> 100 µM (inactive),CC(=NNC(=S)Nc1ccccc1)c1ccc2c(c1)OCO2
18,> 100 µM (inactive),COc1ccc(-c2csc(Nc3cccc4ccccc34)n2)cc1F
19,17.8 µM and 14.5 µM,CCc1ccccc1Nc1nc(-c2ccc(O)c(O)c2)cs1
20,> 100 µM (inactive),COC(=O)/C=C1/S/C(=N/NC(=O)c2ccccc2)NC1=O
21,> 100 µM (inactive),Cc1ccc(Nc2nc(-c3ccc(O)cc3O)cs2)cc1
22,> 100 µM (inactive),Oc1ccc(-c2csc(Nc3ccc(F)cc3)n2)cc1O
23,> 100 µM (inactive),COc1cc(C=NN=C2SC(CC(=O)O)C(=O)N2c2ccc(O)cc2)ccc1O (stereo unspecified)
24,> 100 µM (inactive),COc1cc(C=NNC(=S)Nc2cccc(S(=O)(=O)N(C)C)c2)ccc1O
